Test results: US20170320870A1 (Medical Research Council Technology, priority 2009, published 2017)

The compounds below were run against T1, LRRK2 wild type (recombinant human, catalytic domain amino acids 970-2527, GST-tagged) (Homo sapiens, UniProt Q5S007) (assay: LRRK2 wild type protein kinase assay ([γ-33P] ATP, peptide substrate […]), IC50). Conditions: LRRK2 (variant not given); read-out: Potency score, LRRK2 IC50.
T1 construct: The wild type used was recombinant human, catalytic domain (amino acids 970-2527) GST-tagged, expressed in insect cells; GST; purchased Invitrogen Corporation PV4873; host or cells: insect cells
T1 sequence (Q5S007 970-2527): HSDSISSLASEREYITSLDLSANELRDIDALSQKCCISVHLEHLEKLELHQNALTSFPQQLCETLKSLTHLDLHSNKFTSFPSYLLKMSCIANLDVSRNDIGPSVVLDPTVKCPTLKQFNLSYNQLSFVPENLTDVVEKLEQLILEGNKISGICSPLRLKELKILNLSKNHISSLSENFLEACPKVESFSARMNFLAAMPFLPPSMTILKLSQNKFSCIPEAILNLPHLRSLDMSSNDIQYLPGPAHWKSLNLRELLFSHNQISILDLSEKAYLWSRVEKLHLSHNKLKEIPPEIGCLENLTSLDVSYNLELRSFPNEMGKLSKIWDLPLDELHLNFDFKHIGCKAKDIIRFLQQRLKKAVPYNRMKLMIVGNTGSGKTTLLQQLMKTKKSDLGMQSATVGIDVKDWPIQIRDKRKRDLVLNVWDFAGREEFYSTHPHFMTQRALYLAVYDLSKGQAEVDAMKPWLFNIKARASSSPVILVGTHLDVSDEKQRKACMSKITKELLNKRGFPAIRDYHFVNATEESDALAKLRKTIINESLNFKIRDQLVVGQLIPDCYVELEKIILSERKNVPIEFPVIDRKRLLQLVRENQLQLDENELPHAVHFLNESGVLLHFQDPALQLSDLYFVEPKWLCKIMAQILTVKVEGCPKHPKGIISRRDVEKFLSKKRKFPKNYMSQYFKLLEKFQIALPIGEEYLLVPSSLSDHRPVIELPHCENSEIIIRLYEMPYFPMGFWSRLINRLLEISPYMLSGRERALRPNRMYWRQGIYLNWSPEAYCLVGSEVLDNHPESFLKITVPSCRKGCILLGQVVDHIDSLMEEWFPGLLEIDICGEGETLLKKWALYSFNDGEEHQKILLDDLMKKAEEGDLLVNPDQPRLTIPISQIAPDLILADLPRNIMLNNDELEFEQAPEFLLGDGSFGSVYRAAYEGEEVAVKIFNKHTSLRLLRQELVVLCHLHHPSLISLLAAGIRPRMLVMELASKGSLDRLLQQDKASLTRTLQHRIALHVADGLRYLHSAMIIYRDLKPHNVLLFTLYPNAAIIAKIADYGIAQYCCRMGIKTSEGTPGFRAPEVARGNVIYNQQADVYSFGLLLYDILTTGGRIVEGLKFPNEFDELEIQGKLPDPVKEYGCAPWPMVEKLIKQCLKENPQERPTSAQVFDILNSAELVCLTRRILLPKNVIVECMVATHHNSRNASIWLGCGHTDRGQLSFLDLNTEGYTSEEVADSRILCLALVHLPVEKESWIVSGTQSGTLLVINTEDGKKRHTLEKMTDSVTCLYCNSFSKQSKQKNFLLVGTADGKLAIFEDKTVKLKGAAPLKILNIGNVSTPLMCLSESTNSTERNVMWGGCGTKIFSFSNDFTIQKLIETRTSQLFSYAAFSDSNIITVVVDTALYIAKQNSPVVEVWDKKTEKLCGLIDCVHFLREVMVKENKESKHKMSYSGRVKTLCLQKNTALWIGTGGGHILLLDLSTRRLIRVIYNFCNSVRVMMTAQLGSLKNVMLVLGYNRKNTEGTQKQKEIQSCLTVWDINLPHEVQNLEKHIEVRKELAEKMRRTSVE
Assay type: biochemical
How it was run: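 IC50 derived from duplicate 10-point titrations, with 33P incorporation into a 100 μM peptide counted after P81 filter capture. Roughly 5 nM unactivated kinase reacted with Mg/[γ-33P]ATP for 180 min at room temperature (~21 °C), pH 7.5 Tris buffer containing 10 mM MgCl2, EGTA and DTT; acid-quenched.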
For `Cc1n[nH]c2ccnc(-c3cnccn3)c12` [Example 131, 3-Methyl-4-pyrazin-2-yl-1H-pyrazolo[4,3-cc]pyridine], the IC50 was 1000 to 10000 nM. Work on `Fc1cccc(Nc2nccc3[nH]ncc23)c1` [Example 132, (3-Fluoro-phenyl)-(1H-pyrazolo[4,3-c]pyridin-4-yl)-amine] yielded an IC50 of 100 to 1000 nM. `c1cc2[nH]ncc2c(NC2CCCCC2)n1` [Example 133, Cyclohexyl-(1H-pyrazolo[4,3-c]pyridin-4-yl)-amine] gave an IC50 of 1000 to 10000 nM. Compound `Brc1n[nH]c2ccnc(NC3CCCCC3)c12` [Example 134, (3-Bromo-1H-pyrazolo[4,3-c]pyridin-4-yl)-cyclohexyl-amine] has an IC50 of under 100 nM. `c1cncc(-c2n[nH]c3ccnc(NC4CCCCC4)c23)c1` [Example 135, Cyclohexyl-(3-pyridin-3-yl-1H-pyrazolo[4,3-c]pyridin-4-yl)-amine] was tested, and the IC50 was 100 to 1000 nM. In the case of `c1ccc(-c2n[nH]c3ccnc(NC4CCCCC4)c23)cc1` [Example 136, Cyclohexyl-(3-phenyl-1H-pyrazolo[4,3-c]pyridin-4-yl)-amine], the IC50 is reported as 100 to 1000 nM. Compound `CC(=O)Nc1cccc(-c2n[nH]c3ccnc(NC4CCCCC4)c23)c1` [Example 137, N-[3-(4-Cyclohexylamino-1H-pyrazolo[4,3-c]pyridin-3-yl)-phenyl]-acetamide] has an IC50 of 1000 to 10000 nM. `c1cc2[nH]nc(C3CC3)c2c(NC2CCCCC2)n1` [Example 138, Cyclohexyl-(3-cyclopropyl-1H-pyrazolo[4,3-c]pyridin-4-yl)-amine] was tested, and the IC50 was 100 to 1000 nM. `CNC(=O)c1ccc(-c2n[nH]c3ccnc(NC4CCCCC4)c23)cc1` [Example 139, 4-(4-Cyclohexylamino-1H-pyrazolo[4,3-c]pyridin-3-yl)-N-methyl-benzamide] showed an IC50 of 1000 to 10000 nM. `COc1ccc(-c2n[nH]c3ccnc(NC4CCCCC4)c23)cc1Cl` [Example 140, [3-(3-Chloro-4-methoxy-phenyl)-1H-pyrazolo[4,3-c]pyridin-4-yl]-cyclohexyl-amine] showed an IC50 of 100 to 1000 nM. With `COc1ccc(-c2n[nH]c3ccnc(NC4CCCCC4)c23)cc1` [Example 141, Cyclohexyl-[3-(4-methoxy-phenyl)-1H-pyrazolo[4,3-c]pyridin-4-yl]-amine] the IC50 was 100 to 1000 nM. In the case of `COc1ccc(-c2n[nH]c3ccnc(NC4CCCCC4)c23)cn1` [Example 142, Cyclohexyl-[3-(6-methoxy-pyridin-3-yl)-1H-pyrazolo[4,3-c]pyridin-4-yl]-amine], the IC50 is reported as 1000 to 10000 nM. With `Clc1ccccc1-c1n[nH]c2ccnc(NC3CCCCC3)c12` [Example 143, [3-(2-Chloro-phenyl)-1H-pyrazolo[4,3-c]pyridin-4-yl]-cyclohexyl-amine] the IC50 was 100 to 1000 nM. Compound `Clc1cccc(-c2n[nH]c3ccnc(NC4CCCCC4)c23)c1` [Example 144, [3-(3-Chloro-phenyl)-1H-pyrazolo[4,3-c]pyridin-4-yl]-cyclohexyl-amine] has an IC50 of 100 to 1000 nM. Compound `Clc1ccc(-c2n[nH]c3ccnc(NC4CCCCC4)c23)cc1` [Example 145, [3-(4-Chloro-phenyl)-1H-pyrazolo[4,3-c]pyridin-4-yl]-cyclohexyl-amine] has an IC50 of 100 to 1000 nM. `COc1cccc(-c2n[nH]c3ccnc(NC4CCCCC4)c23)c1` [Example 146, Cyclohexyl-[3-(3-methoxy-phenyl)-1H-pyrazolo[4,3-c]pyridin-4-yl]-amine] gave an IC50 of 100 to 1000 nM. `c1cc2[nH]nc(-c3ccoc3)c2c(NC2CCCCC2)n1` [Example 147] showed an IC50 of 100 to 1000 nM. Work on `Cc1ccc(-c2n[nH]c3ccnc(NC4CCCCC4)c23)cc1` [Example 148, Cyclohexyl-(3-p-tolyl-1H-pyrazolo[4,3-c]pyridin-4-yl)-amine] yielded an IC50 of 100 to 1000 nM. With `Cc1cccc(-c2n[nH]c3ccnc(NC4CCCCC4)c23)c1` [Example 149, Cyclohexyl-(3-m-tolyl-1H-pyrazolo[4,3-c]pyridin-4-yl)-amine] the IC50 was 100 to 1000 nM. In the case of `N#Cc1cccc(-c2n[nH]c3ccnc(NC4CCCCC4)c23)c1` [Example 150, 3-(4-Cyclohexylamino-1H-pyrazolo[4,3-c]pyridin-3-yl)-benzonitrile], the IC50 is reported as 100 to 1000 nM.
